Data reported in patent US8063071B2 (GlaxoSmithKline, LLC, priority 2007, dated 2011).
pIC50: −log10 of the molar value. Where a name gives a salt, the structure may show the parent alone.

Assays:
[1] = molecular target: T1, Recombinant human IKKβ (residues 1-737) (Homo sapiens, UniProt O14920); assay: IKK2 assay (TR-FRET); assay type: biochemical; conditions: ATP 1 μM final, read-out: pIC50 against IKK2 (converted)
T1 construct: Recombinant human IKKβ (residues 1-737); GST (C); made in house
T1 sequence (O14920 1-737): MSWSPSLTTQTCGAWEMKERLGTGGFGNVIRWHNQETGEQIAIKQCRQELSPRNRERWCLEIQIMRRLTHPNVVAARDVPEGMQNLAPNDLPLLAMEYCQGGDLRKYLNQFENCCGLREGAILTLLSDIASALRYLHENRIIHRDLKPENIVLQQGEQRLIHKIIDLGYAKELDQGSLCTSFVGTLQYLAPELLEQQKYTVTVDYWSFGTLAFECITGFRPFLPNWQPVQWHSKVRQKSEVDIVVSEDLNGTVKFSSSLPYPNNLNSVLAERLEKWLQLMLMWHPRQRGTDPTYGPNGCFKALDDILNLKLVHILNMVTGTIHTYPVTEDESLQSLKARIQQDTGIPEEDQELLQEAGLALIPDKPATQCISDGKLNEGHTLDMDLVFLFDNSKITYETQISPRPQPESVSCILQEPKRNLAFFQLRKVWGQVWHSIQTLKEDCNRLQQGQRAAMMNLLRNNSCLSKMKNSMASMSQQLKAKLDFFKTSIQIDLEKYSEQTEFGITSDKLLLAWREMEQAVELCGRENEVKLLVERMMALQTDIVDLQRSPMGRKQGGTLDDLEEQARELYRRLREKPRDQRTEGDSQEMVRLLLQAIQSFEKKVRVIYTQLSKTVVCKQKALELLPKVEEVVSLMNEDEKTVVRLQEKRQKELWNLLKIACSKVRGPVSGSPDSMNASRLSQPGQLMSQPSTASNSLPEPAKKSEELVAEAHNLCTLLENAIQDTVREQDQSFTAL
Procedure, shortened: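 Baculovirus-expressed C-terminal GST-tagged IKKβ (0.5-5 nM final) in HEPES pH 7.4, MgCl2, CHAPS, DTT, BSA with 1.7% DMSO; 25 nM GST-IB substrate and 1 μM ATP, 15 min at room temperature. EDTA stop; phospho-Ser32/36 detected by Eu-antibody/APC-anti-GST TR-FRET, 665/620 nm ratio.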

[2] = system: human monocyte stimulated cytokine production (TNF-α); assay: Monocyte assay (LPS-stimulated TNF-α production); assay type: cell-based; conditions: 24 h, 200 ng/mL LPS, TNF-α by ELISA
Procedure, shortened: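 Human CD14+ monocytes were purified from blood and plated at 1×10^6 cells/mL in RPMI 1640 with 10% FBS. Compound was added 30 min before stimulation with 200 ng/mL LPS (0.1% DMSO final), followed by 24 hrs at 37 C. Supernatant TNF-α was measured by ELISA, and viability by trypan blue exclusion.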

SMILES | IC50 [1] [µM] | pIC50 [2]
CCS(=O)(=O)N1CCC(c2c[nH]c3c(C(N)=O)cc(-c4cnn(CCN5CCCC5)c4)cc23)CC1 [Example 253, 3-[1-(ethylsulfonyl)-4-piperidinyl]-5-{1-[2-(1-pyrrolidinyl)ethyl]-1H-pyrazol-4-yl}-1H-indole-7-carboxamide trifluoroacetate] | ≤ 10 | < 6.00
CCS(=O)(=O)N1CCC(c2c[nH]c3c(C(N)=O)cc(-c4cnn(CCN5CCOCC5)c4)cc23)CC1 [Example 254, 3-[1-(ethylsulfonyl)-4-piperidinyl]-5-{1-[2-(4-morpholinyl)ethyl]-1H-pyrazol-4-yl}-1H-indole-7-carboxamide trifluoroacetate] | ≤ 10 | < 6.00
CCS(=O)(=O)N1CCC(c2c[nH]c3c(C(N)=O)cc(-c4cnn(CCNCCO)c4)cc23)CC1 [Example 255, 3-[1-(ethylsulfonyl)-4-piperidinyl]-5-(1-{2-[(2-hydroxyethyl)amino]ethyl}-1H-pyrazol-4-yl)-1H-indole-7-carboxamide trifluoroacetate] | ≤ 10 | < 6.00
CCCCNCCn1cc(-c2cc(C(N)=O)c3[nH]cc(C4CCN(S(=O)(=O)CC)CC4)c3c2)cn1 [Example 256, 5-{1-[2-(butylamino)ethyl]-1H-pyrazol-4-yl}-3-[1-(ethylsulfonyl)-4-piperidinyl]-1H-indole-7-carboxamide trifluoroacetate] | ≤ 10 | < 6.00
CCS(=O)(=O)N1CCC(c2c[nH]c3c(C(N)=O)cc(-c4cnn(CCNC5CCC5)c4)cc23)CC1 [Example 257, 5-{1-[2-(cyclobutylamino)ethyl]-1H-pyrazol-4-yl}-3-[1-(ethylsulfonyl)-4-piperidinyl]-1H-indole-7-carboxamide trifluoroacetate] | ≤ 10 | < 6.00
CCN(CC)CCNCCn1cc(-c2cc(C(N)=O)c3[nH]cc(C4CCN(S(=O)(=O)CC)CC4)c3c2)cn1 [Example 258, 5-[1-(2-{[2-(diethylamino)ethyl]amino}ethyl)-1H-pyrazol-4-yl]-3-[1-(ethylsulfonyl)-4-piperidinyl]-1H-indole-7-carboxamide trifluoroacetate] | ≤ 10 | < 6.00
CCS(=O)(=O)N1CCC(c2c[nH]c3c(C(N)=O)cc(-c4cnn(CCNC(C)C)c4)cc23)CC1 [Example 259, 3-[1-(ethylsulfonyl)-4-piperidinyl]-5-(1-{2-[(1-methylethyl)amino]ethyl}-1H-pyrazol-4-yl)-1H-indole-7-carboxamide trifluoroacetate] | ≤ 10 | < 6.00
CCS(=O)(=O)N1CCC(c2c[nH]c3c(C(N)=O)cc(-c4cnn(CCNCC(C)C)c4)cc23)CC1 [Example 260, 3-[1-(ethylsulfonyl)-4-piperidinyl]-5-(1-{2-[(2-methylpropyl)amino]ethyl}-1H-pyrazol-4-yl)-1H-indole-7-carboxamide trifluoroacetate] | ≤ 10 | < 6.00
CCS(=O)(=O)N1CCC(c2c[nH]c3c(C(N)=O)cc(-c4ccc(OC)c(CN5CCCC5)c4)cc23)CC1 [Example 262, 3-[1-(ethylsulfonyl)-4-piperidinyl]-5-[4-(methyloxy)-3-(1-pyrrolidinylmethyl)phenyl]-1H-indole-7-carboxamide trifluoroacetate] | ≤ 10 | < 6.00
CCS(=O)(=O)N1CCC(c2c[nH]c3c(C(N)=O)cc(-c4cc(CNC)cc(CNC)c4)cc23)CC1 [Example 270, 5-{3,5-bis[(methylamino)methyl]phenyl}-3-[1-(ethylsulfonyl)-4-piperidinyl]-1H-indole-7-carboxamide trifluoroacetate] | ≤ 10 | < 6.00
CCS(=O)(=O)N1CCC(c2c[nH]c3c(C(N)=O)cc(-c4ccc(F)c(CNC(CO)CO)c4)cc23)CC1 [Example 272, 3-[1-(ethylsulfonyl)-4-piperidinyl]-5-[4-fluoro-3-({[2-hydroxy-1-(hydroxymethyl)ethyl]amino}methyl)phenyl]-1H-indole-7-carboxamide trifluoroacetate (salt)] | ≤ 10 | < 6.00

The next lines start with the values.

IC50 [1] [µM] | pIC50 [2] | SMILES
≤ 10 | ≥ 5.82 | CCS(=O)(=O)N1CCC(c2c[nH]c3c(C(N)=O)cc(-c4coc(CNCC(C)(C)C)c4)cc23)CC1 [Example 244, 5-(5-{[(2,2-dimethylpropyl)amino]methyl}-3-furanyl)-3-[1-(ethylsulfonyl)-4-piperidinyl]-1H-indole-7-carboxamide trifluoroacetate]
≤ 10 | ≥ 5.82 | CCS(=O)(=O)N1CCC(c2c[nH]c3c(C(N)=O)cc(-c4coc(CNCC(C)C)c4)cc23)CC1 [Example 245, 3-[1-(ethylsulfonyl)-4-piperidinyl]-5-(5-{[(2-methylpropyl)amino]methyl}-3-furanyl)-1H-indole-7-carboxamide trifluoroacetate]
≤ 10 | ≥ 5.82 | CCS(=O)(=O)N1CCC(c2c[nH]c3c(C(N)=O)cc(-c4coc(CNCC5CCCC5)c4)cc23)CC1 [Example 246, 5-(5-{[(cyclopentylmethyl)amino]methyl}-3-furanyl)-3-[1-(ethylsulfonyl)-4-piperidinyl]-1H-indole-7-carboxamide trifluoroacetate]
≤ 10 | ≥ 5.82 | CCS(=O)(=O)N1CCC(c2c[nH]c3c(C(N)=O)cc(-c4coc(CN5CCCC5)c4)cc23)CC1 [Example 247, 3-[1-(ethylsulfonyl)-4-piperidinyl]-5-[5-(1-pyrrolidinylmethyl)-3-furanyl]-1H-indole-7-carboxamide trifluoroacetate]
≤ 10 | ≥ 5.82 | CCN(CC)Cc1cc(-c2cc(C(N)=O)c3[nH]cc(C4CCN(S(=O)(=O)CC)CC4)c3c2)co1 [Example 248, 5-{5-[(diethylamino)methyl]-3-furanyl}-3-[1-(ethylsulfonyl)-4-piperidinyl]-1H-indole-7-carboxamide trifluoroacetate]
≤ 10 | < 6.00 | CCS(=O)(=O)N1CCC(c2c[nH]c3c(C(N)=O)cc(-c4ncc(CN5CCCC5)s4)cc23)CC1 [Example 249, 3-[1-(ethylsulfonyl)-4-piperidinyl]-5-[5-(1-pyrrolidinylmethyl)-1,3-thiazol-2-yl]-1H-indole-7-carboxamide trifluoroacetate]
≤ 10 | ≥ 5.82 | CCS(=O)(=O)N1CCC(c2c[nH]c3c(C(N)=O)cc(-c4csc(C(C(C)C)N5CCCC5)c4)cc23)CC1 (stereo not shown) [Example 250, 3-[1-(ethylsulfonyl)-4-piperidinyl]-5-{5-[2-methyl-1-(1-pyrrolidinyl)propyl]-3-thienyl}-1H-indole-7-carboxamide trifluoroacetate]
≤ 10 | ≥ 5.82 | CCS(=O)(=O)N1CCC(c2c[nH]c3c(C(N)=O)cc(-c4nc(CN5CCCC5)cs4)cc23)CC1 [Example 251, 3-[1-(ethylsulfonyl)-4-piperidinyl]-5-[4-(1-pyrrolidinylmethyl)-1,3-thiazol-2-yl]-1H-indole-7-carboxamide trifluoroacetate]
≤ 10 | ≥ 5.82 | CCS(=O)(=O)N1CCC(c2c[nH]c3c(C(N)=O)cc(-c4ccc(F)c(CNC)c4)cc23)CC1 [Example 269, 3-[1-(ethylsulfonyl)-4-piperidinyl]-5-{4-fluoro-3-[(methylamino)methyl]phenyl}-1H-indole-7-carboxamide trifluoroacetate]
≤ 10 | ≥ 5.82 | CCNCc1cc(-c2cc(C(N)=O)c3[nH]cc(C4CCN(S(=O)(=O)CC)CC4)c3c2)ccc1F [Example 271, 5-{3-[(ethylamino)methyl]-4-fluorophenyl}-3-[1-(ethylsulfonyl)-4-piperidinyl]-1H-indole-7-carboxamide trifluoroacetate]
≤ 10 | ≥ 5.82 | CCS(=O)(=O)N1CCC(c2c[nH]c3c(C(N)=O)cc(-c4ccc(F)c(CN[C@@H](C)CO)c4)cc23)CC1 [Example 273, 3-[1-(ethylsulfonyl)-4-piperidinyl]-5-[4-fluoro-3-({[(1S)-2-hydroxy-1-methylethyl]amino}methyl)phenyl]-1H-indole-7-carboxamide trifluoroacetate (salt)]
≤ 10 | ≥ 5.82 | CCS(=O)(=O)N1CCC(c2c[nH]c3c(C(N)=O)cc(-c4ccc(F)c(CNC5CC5)c4)cc23)CC1 [Example 274, 5-{3-[(cyclopropylamino)methyl]-4-fluorophenyl}-3-[1-(ethylsulfonyl)-4-piperidinyl]-1H-indole-7-carboxamide trifluoroacetate]
